Results: paper PMC12827894, “Structure-guided design of picomolar-level macrocyclic TRPC5 channel inhibitors with antidepressant activity” (Acta Pharmaceutica Sinica. B, 2025)
Read-outs that look alike come from different tables or passages of the source.

Experiments:
[1] = target: T1, TRPC4 (Homo sapiens, UniProt Q9UBN4); experiment: Whole-cell patch-clamp, TRPC4, 100 nmol/L EA; type: cell-based; details: HEK293T
T1 construct: expressed in transfected cells
Text: (§1) Given that TRPC4 and TRPC5 are highly similar and often form heteromeric with TRPC1, we evaluated JDIC-127's activity on TRPC4, TRPC1/4, and TRPC1/5 using whole-cell patch-clamp recordings under agonist stimulation with 100 nmol/L EA in HEK293T cells. […].
(§2) For electrophysiological activity testing of compounds against TRPC4 and TRPC5, stably expressed TRPC5 or TRPC4 cells were used for whole-cell patch-clamp recordings, employing a HEKA EPC10 amplifier and […] software (https://www.heka.com/downloads/downloads_main.html#down_patchmaster). Prior to recording, cells were induced with 1 μg/mL tetracycline for 24 h. For TRPC1/4 or TRPC1/5 heteromers, plasmids TRPC1 and TRPC5 or TRPC1 and TRPC4 were co-transfected into HEK293T cells. After 48 to 72 h of transfection, testing was performed. A 1-s ramp protocol from −100 to +100 mV at 0.2 Hz was applied, as previously described. The extracellular solution consisted of 140 mmol/L NaCl, 1 mmol/L MgCl2, 2 mmol/L CaCl2, 10 mmol/L Hepes, 5 mmol/L KCl, and 10 mmol/L D-glucose, with pH adjusted to 7.4 using NaOH. […] The half-maximal inhibitory concentration (IC50) of drugs was determined by recording currents at a +100 mV pulse and analyzing current amplitudes at varying drug concentrations, with IC50 values calculated using the Hill equation. […]

[2] = target: T2, TRPC1/4 (Homo sapiens, UniProt P48995+Q9UBN4); experiment: Whole-cell patch-clamp, TRPC1/4 heteromer, 100 nmol/L EA; type: cell-based; details: read-out: IC50, TRPC1/4
T2 construct: expressed in transfected cells; host or cells: HEK293T
Text: as §1, §2

[3] = target: TRPC3 (Homo sapiens, UniProt Q13507); experiment: Patch-clamp selectivity, TRPC3; type: cell-based; details: 1 μmol/L
[4] = target: TRPM3 (Homo sapiens, UniProt Q9HCF6); experiment: Patch-clamp selectivity, TRPM3; type: cell-based; details: 10 μmol/L
[5] = tested on: C57BL/6 mice; experiment: Tail suspension test (TST); type: in vivo
[6] = tested on: C57BL/6J mice; experiment: m-CPP-induced anxiety model, elevated plus maze; type: in vivo; details: 10 mg/kg p.o.
[7] = target: T3, M1 (Homo sapiens, UniProt P11229); experiment: cell-based; type: cell-based
T3 construct: purchased ICE Bioscience ICESTP SafetyOne44 Panel

[8] = target: T4, 5-HT1B (Homo sapiens, UniProt P28222); experiment: cell-based; details: 10 μmol/L
T4 construct: purchased ICE Bioscience ICESTP SafetyOne44 Panel

[9] = target: T5, β1 (Homo sapiens, UniProt P08588); experiment: SafetyOne44 panel: β1; type: cell-based
T5 construct: purchased ICE Bioscience ICESTP™ SafetyOne44 Panel

[10] = target: T6, β2 (Homo sapiens, UniProt P07550); experiment: SafetyOne44 panel: β2; type: cell-based
T6 construct: purchased ICE Bioscience ICESTP™ SafetyOne44 Panel

[11] = target: T7, CB2 (Homo sapiens, UniProt P34972); experiment: cell-based; type: cell-based
T7 construct: purchased ICE Bioscience ICESTP™ SafetyOne44 Panel

[12] = target: T8, D1 (Homo sapiens, UniProt P21728); experiment: cell-based; type: cell-based
T8 construct: purchased ICE Bioscience ICESTP™ SafetyOne44 Panel

[13] = target: T9, D2 (Homo sapiens, UniProt P14416); experiment: cell-based; type: cell-based
T9 construct: purchased ICE Bioscience ICESTP™ SafetyOne44 Panel

[14] = target: T10, H2 (Homo sapiens, UniProt P25021); experiment: SafetyOne44 panel: H2; type: cell-based; details: 10 μmol/L
T10 construct: purchased ICE Bioscience ICESTP™ SafetyOne44 Panel

[15] = target: T11, μOR (Homo sapiens, UniProt P35372); experiment: cell-based; details: antagonist mode, 10 μmol/L, read-out: Antagonist JDIC-127 @10 μmol/L
T11 construct: purchased ICE Bioscience ICESTP™ SafetyOne44 Panel

[16] = target: T12, MAO A (Homo sapiens, UniProt P21397); experiment: SafetyOne44 panel: MAO A; type: biochemical; details: 10 μmol/L, read-out: Antagonist JDIC-127 @10 μmol/L
T12 construct: purchased ICE Bioscience ICESTP™ SafetyOne44 Panel

[17] = target: T13, LCK (Homo sapiens, UniProt P06239); experiment: biochemical; details: 10 μmol/L, read-out: Antagonist JDIC-127 @10 μmol/L
T13 construct: purchased ICE Bioscience ICESTP™ SafetyOne44 Panel

[18] = target: T14, Cav1.2 (Homo sapiens, UniProt Q13936); type: cell-based; details: Cav1.2, 5 μmol/L
T14 construct: ICE Bioscience ICESTP SafetyOne44 Panel

[19] = in vivo; details: male, C57BL/6, mouse, B/P

T7 sequence (P34972 whole entry): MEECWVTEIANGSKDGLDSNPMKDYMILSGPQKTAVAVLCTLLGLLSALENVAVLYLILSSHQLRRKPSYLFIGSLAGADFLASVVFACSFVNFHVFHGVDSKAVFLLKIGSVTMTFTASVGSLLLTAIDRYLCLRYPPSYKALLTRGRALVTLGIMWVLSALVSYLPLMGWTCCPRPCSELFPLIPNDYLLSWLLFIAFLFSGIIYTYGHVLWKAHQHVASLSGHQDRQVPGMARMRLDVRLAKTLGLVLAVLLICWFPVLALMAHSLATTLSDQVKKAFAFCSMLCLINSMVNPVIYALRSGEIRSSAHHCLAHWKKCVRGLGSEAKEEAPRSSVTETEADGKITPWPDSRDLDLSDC
T3 sequence (P11229 whole entry): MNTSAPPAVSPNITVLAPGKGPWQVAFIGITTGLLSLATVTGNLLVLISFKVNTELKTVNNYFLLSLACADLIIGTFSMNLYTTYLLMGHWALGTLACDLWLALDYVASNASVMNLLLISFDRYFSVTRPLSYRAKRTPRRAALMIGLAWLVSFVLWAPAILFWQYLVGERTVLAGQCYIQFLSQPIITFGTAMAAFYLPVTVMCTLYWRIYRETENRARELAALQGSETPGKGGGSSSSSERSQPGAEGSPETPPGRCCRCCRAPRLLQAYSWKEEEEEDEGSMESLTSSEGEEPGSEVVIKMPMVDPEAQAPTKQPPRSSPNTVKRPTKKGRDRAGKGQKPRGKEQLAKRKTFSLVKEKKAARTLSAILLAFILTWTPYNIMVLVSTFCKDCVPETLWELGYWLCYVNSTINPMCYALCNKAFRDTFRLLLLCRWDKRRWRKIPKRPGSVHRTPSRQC
T6 sequence (P07550 whole entry): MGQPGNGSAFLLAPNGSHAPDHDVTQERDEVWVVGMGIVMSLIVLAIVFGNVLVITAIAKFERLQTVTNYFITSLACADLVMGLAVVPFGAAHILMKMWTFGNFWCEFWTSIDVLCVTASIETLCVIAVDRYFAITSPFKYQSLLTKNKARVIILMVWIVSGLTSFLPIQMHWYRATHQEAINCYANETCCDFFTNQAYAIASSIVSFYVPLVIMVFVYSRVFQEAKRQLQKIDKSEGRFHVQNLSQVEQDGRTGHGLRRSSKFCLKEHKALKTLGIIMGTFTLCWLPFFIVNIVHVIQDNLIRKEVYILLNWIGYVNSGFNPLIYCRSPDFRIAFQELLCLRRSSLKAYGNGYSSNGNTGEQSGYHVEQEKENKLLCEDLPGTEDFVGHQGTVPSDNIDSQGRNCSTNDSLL
T5 sequence (P08588 whole entry): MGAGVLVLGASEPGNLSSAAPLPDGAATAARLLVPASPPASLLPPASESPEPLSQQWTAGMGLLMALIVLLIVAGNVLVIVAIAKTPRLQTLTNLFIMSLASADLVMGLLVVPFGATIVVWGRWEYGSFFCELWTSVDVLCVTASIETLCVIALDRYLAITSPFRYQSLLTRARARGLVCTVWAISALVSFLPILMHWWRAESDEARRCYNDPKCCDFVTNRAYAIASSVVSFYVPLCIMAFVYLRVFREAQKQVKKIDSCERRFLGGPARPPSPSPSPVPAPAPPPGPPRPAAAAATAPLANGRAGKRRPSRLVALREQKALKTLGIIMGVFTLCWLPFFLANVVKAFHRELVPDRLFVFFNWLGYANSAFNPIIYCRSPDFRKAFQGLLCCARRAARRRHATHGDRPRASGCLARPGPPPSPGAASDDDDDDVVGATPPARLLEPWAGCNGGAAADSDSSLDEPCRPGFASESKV
T9 sequence (P14416 whole entry): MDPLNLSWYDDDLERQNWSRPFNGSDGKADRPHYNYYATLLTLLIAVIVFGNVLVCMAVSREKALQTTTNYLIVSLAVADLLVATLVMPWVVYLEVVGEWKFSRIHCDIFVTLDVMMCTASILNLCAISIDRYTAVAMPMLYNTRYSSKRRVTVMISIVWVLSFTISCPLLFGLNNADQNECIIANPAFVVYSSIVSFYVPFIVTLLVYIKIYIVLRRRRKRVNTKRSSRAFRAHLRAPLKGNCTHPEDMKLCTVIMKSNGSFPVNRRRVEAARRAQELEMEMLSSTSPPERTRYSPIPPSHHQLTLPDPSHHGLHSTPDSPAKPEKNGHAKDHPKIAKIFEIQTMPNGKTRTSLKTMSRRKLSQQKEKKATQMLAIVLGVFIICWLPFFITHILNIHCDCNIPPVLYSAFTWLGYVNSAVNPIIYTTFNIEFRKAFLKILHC
T8 sequence (P21728 whole entry): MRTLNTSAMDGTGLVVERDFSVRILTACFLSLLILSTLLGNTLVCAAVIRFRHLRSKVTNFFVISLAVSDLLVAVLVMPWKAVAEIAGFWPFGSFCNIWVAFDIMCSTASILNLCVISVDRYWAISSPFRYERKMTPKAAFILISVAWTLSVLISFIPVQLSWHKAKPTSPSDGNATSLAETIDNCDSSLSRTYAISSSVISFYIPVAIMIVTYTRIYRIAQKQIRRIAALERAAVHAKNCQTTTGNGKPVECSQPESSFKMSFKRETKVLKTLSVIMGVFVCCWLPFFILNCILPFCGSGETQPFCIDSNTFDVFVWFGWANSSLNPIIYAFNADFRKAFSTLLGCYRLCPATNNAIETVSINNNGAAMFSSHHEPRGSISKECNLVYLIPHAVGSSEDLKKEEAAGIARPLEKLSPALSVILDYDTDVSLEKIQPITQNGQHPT
T4 sequence (P28222 whole entry): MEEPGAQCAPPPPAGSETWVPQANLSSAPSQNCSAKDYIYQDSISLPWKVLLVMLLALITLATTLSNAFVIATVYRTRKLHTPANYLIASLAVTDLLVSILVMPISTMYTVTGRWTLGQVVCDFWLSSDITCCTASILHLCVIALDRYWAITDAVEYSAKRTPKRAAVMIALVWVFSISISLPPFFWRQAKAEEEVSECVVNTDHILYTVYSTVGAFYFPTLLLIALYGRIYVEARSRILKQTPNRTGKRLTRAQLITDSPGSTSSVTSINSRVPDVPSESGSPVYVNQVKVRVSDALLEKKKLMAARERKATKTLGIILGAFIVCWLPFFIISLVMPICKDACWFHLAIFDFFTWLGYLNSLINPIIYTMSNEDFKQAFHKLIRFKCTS
T10 sequence (P25021 whole entry): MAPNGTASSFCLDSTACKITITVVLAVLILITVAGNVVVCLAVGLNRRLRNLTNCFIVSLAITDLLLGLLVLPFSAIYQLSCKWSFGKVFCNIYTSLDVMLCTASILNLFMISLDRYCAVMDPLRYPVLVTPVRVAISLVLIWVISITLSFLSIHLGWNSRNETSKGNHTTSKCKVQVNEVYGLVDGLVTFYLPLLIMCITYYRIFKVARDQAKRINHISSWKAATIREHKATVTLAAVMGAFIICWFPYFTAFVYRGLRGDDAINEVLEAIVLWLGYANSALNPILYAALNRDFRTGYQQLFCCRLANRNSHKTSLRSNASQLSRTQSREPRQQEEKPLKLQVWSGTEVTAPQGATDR
T12 sequence (P21397 whole entry): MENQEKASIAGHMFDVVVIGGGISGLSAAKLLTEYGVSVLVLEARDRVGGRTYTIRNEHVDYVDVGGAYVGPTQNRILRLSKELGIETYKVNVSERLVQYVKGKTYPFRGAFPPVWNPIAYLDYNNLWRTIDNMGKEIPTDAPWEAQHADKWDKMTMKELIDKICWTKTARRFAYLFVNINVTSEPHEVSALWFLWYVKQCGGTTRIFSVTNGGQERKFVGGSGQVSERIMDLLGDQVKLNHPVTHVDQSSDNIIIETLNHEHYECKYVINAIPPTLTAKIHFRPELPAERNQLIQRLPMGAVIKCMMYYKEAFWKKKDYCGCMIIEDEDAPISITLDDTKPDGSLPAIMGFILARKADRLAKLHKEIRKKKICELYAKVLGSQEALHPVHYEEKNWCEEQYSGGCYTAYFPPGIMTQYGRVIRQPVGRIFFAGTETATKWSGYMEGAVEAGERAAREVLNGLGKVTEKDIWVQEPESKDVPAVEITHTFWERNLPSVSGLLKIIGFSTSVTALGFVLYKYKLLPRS
T1 sequence (Q9UBN4 whole entry): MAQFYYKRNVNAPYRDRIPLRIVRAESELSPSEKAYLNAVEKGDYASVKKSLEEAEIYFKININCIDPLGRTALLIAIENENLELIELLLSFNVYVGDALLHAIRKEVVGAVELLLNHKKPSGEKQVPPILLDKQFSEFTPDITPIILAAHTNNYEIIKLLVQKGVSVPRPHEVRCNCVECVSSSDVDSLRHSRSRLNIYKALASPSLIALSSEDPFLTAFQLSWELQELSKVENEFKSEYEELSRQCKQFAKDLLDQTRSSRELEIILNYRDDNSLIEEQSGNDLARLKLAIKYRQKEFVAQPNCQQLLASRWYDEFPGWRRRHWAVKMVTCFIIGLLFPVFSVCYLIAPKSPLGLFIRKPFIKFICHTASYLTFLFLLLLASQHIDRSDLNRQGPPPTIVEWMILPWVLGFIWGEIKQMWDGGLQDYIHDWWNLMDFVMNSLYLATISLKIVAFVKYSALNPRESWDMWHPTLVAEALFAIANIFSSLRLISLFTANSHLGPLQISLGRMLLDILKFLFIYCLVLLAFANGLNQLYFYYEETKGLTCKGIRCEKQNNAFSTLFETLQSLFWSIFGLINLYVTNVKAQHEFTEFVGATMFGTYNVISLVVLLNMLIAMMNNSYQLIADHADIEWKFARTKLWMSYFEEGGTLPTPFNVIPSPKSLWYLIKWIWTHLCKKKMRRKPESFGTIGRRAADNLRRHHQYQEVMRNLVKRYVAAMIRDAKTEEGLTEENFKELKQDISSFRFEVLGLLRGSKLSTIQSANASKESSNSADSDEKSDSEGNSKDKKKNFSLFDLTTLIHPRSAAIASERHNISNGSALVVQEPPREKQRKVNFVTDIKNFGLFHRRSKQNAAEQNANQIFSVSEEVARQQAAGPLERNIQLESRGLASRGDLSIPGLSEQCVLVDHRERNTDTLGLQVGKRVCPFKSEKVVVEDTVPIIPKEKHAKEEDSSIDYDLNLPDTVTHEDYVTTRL

Which results are given for O=c1c2c3nc(n2Cc2ccc(Cl)cc2)Oc2ccc(F)c(c2)OCCCCCCn3c(=O)n1CCCO [JDIC-127]?
IC50 [1]: 0.001 nM; IC50 [2]: 1.86 nM; inhibition at 1 µM [3]: < 20%; inhibition at 10 µM [4]: < 33%; efficacy in TST relative to reference drugs ([5]; 0.3 mg/kg p.o. vs 10 mg/kg desipramine, 3 mg/kg HC-070): comparable efficacy to desipramine and HC-070; immobility time in TST ([5]; 0.3 or 3 mg/kg p.o., 60 min prior to testing): significantly reduced; percentage of entries into the open arms, EPM [6]: significantly increased; Agonist JDIC-127 @10 μmol/L ([7]; M1, agonist mode): –0.83%; inhibition at 10 µM ([7]; M1, antagonist mode, 10 μmol/L, read-out: Antagonist JDIC-127 @10 μmol/L): 0.22%; Agonist JDIC-127 @10 μmol/L ([8]; agonist mode): 10.95%; inhibition at 10 µM ([8]; antagonist mode, read-out: Antagonist JDIC-127 @10 μmol/L): -14.7%; Agonist JDIC-127 @10 μmol/L ([9]; β1, agonist mode): –1.87%; inhibition at 10 µM ([9]; β1, antagonist mode, 10 μmol/L, read-out: Antagonist JDIC-127 @10 μmol/L): 1.84%; Agonist JDIC-127 @10 μmol/L ([10]; β2, agonist mode): –1.53%; inhibition at 10 µM ([10]; β2, antagonist mode, 10 μmol/L, read-out: Antagonist JDIC-127 @10 μmol/L): 19.6%; Agonist JDIC-127 @10 μmol/L ([11]; CB2, agonist mode): 26.01%; inhibition at 10 µM ([11]; CB2, antagonist mode, 10 μmol/L, read-out: Antagonist JDIC-127 @10 μmol/L): -0.84%; Agonist JDIC-127 @10 μmol/L ([12]; D1, agonist mode): –1.54%; inhibition at 10 µM ([12]; D1, antagonist mode, 10 μmol/L, read-out: Antagonist JDIC-127 @10 μmol/L): 8.89%; Agonist JDIC-127 @10 μmol/L ([13]; D2, agonist mode): –9.18%; inhibition at 10 µM ([13]; D2, antagonist mode, 10 μmol/L, read-out: Antagonist JDIC-127 @10 μmol/L): -1.55%; Agonist JDIC-127 @10 μmol/L ([14]; H2, agonist mode): –6.71%; inhibition at 10 µM ([14]; H2, antagonist mode, read-out: Antagonist JDIC-127 @10 μmol/L): 5.6%; inhibition at 10 µM [15]: -16.9%; inhibition at 10 µM [16]: 15.5%; inhibition at 10 µM [17]: 29.4%; Antagonist JDIC-127 @5 μmol/L [18]: 20.23%; Cbr (i.v., 2 mg/kg, 2 min): 407.01 nmol/kg; Cpl (i.v., 2 mg/kg, 2 min): 367.10 nmol/L; Cbr (i.v., 2 mg/kg, 45 min): 198.65 nmol/kg; Cpl (i.v., 2 mg/kg, 45 min): 51.63 nmol/L; Cbr (i.v., 2 mg/kg, 180 min): 74.96 nmol/kg; Cpl (i.v., 2 mg/kg, 180 min): 10.12 nmol/L; Cbr (p.o., 10 mg/kg, 2 min): 22.16 nmol/kg; Cpl (p.o., 10 mg/kg, 2 min): 6.36 nmol/L; Cbr (p.o., 10 mg/kg, 45 min): 223.33 nmol/kg; Cpl (p.o., 10 mg/kg, 45 min): 88.83 nmol/L; Cbr (p.o., 10 mg/kg, 180 min): 7.35 nmol/kg; Cpl (p.o., 10 mg/kg, 180 min): 22.96 nmol/L; Kp ([19]; iv, 2 mg/kg, 2 min): 1.1; Kp ([19]; iv, 2 mg/kg, 45 min): 3.85; Kp ([19]; iv, 2 mg/kg, 180 min): 7.4; Kp ([19]; po, 10 mg/kg, 2 min): 3.48; Kp ([19]; po, 10 mg/kg, 45 min): 2.51; Kp ([19]; po, 10 mg/kg, 180 min): 0.32
